Results taken from the supplement of paper PMC11451515.

Key:
Conditions in all cases: 48 h
[1] = test system: NOMO1; assay: cell viability relative to DMSO control; higher = less cytotoxic
Summary of the method: (§1)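 In 1536-well plates, 5 μl of leukemia cells were seeded per well: 500 cells/well for NOMO1 or SEM and 1000 cells/well for P12-Ichikawa. Each line had first been adapted for at least four passages in each medium. Library compounds in DMSO were pin-dosed at 11 threefold concentrations between 47 μM and 0.79 nM, and CellTiter-Glo One luminescence was read after 48 h at 37°C. Viability is a per-plate percentage relative to DMSO wells, with cell-free wells as background.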

[2] = test system: P12-Ichikawa; assay: as above
Summary of the method: as §1

[3] = test system: SEM cells; assay: as above
Summary of the method: as §1

[4] = test system: NOMO1; assay: AUC of viability dose-response curve (% viability x log10 dose units); higher = less sensitive
Summary of the method: (§2)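 Area under the curve was integrated by trapezoidal rule from a log-logistic fit of normalised viability, with curves exceeding full viability scaled and quality-control failures removed. The fit had four parameters over log10 doses. Viability came from CellTiter-Glo One luminescence, normalised per plate to DMSO and cell-free wells, after leukemia cells adapted to each medium (500 or 1000 cells/well, 1536-well plates) were exposed to library compounds in DMSO for 48 h at 37°C. The 11 threefold doses ran from 47 μM to 0.79 nM.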

[5] = test system: P12-Ichikawa; assay: as above
Summary of the method: as §2

[6] = test system: SEM cells; assay: as above
Summary of the method: as §2

CC(C)(O)/C=C\C(=O)[C@](C)(O)[C@H]1[C@H](O)C[C@]2(C)[C@@H]3CC=C4[C@@H](C=C(O)C(=O)C4(C)C)[C@]3(C)C(=O)C[C@@]12C
cell viability [%]
Conditions | [1] | [2] | [3]
HPLM + 10% dialyzed FBS, 0.000781 µM | 96.2 | 94.8 | 92.4
HPLM + 10% dialyzed FBS, 0.00234 µM | 115 | 106 | 91.3
HPLM + 10% dialyzed FBS, 0.00702 µM | 126 | 103 | 119
HPLM + 10% dialyzed FBS, 0.0211 µM | 116 | 99.6 | 100
HPLM + 10% dialyzed FBS, 0.0632 µM | 111 | 99.7 | 51.8
HPLM + 10% dialyzed FBS, 0.19 µM | 74.7 | 50.9 | 24
HPLM + 10% dialyzed FBS, 0.569 µM | 18.8 | 15.1 | 24
HPLM + 10% dialyzed FBS, 1.71 µM | 17.3 | 18.4 | 21.7
HPLM + 10% dialyzed FBS, 5.12 µM | 14.5 | 21.6 | 20.4
HPLM + 10% dialyzed FBS, 15.4 µM | 7.22 | 12.9 | 6.86
HPLM + 10% dialyzed FBS, 46.1 µM | 11.9 | 4.2 | 4.91
RPMI 5 mM glucose + 10% FBS, 0.000781 µM | 106 | 113 | 97.5
RPMI 5 mM glucose + 10% FBS, 0.00234 µM | 102 | 105 | 85.7
RPMI 5 mM glucose + 10% FBS, 0.00702 µM | 95.5 | 111 | 109
RPMI 5 mM glucose + 10% FBS, 0.0211 µM | 122 | 107 | 101
RPMI 5 mM glucose + 10% FBS, 0.0632 µM | 89.2 | 97.9 | 35
RPMI 5 mM glucose + 10% FBS, 0.19 µM | 63.4 | 47.3 | 15.8
RPMI 5 mM glucose + 10% FBS, 0.569 µM | 30.2 | 12.4 | 13.7
RPMI 5 mM glucose + 10% FBS, 1.71 µM | 18.8 | 15.1 | 11
RPMI 5 mM glucose + 10% FBS, 5.12 µM | 16.1 | 17.1 | 11.9
RPMI 5 mM glucose + 10% FBS, 15.4 µM | 9.22 | 6.22 | 6.54
RPMI 5 mM glucose + 10% FBS, 46.1 µM | 14.5 | 2.85 | 5.36
RPMI 5 mM glucose + 10% dialyzed FBS, 0.000781 µM | 101 | 93.9 | 104
RPMI 5 mM glucose + 10% dialyzed FBS, 0.00234 µM | 110 | 98.5 | 78.7
RPMI 5 mM glucose + 10% dialyzed FBS, 0.00702 µM | 108 | 93.9 | 103
RPMI 5 mM glucose + 10% dialyzed FBS, 0.0211 µM | 110 | 104 | 108
RPMI 5 mM glucose + 10% dialyzed FBS, 0.0632 µM | 99.8 | 102 | 55.6
RPMI 5 mM glucose + 10% dialyzed FBS, 0.19 µM | 58.2 | 43.8 | 17.5
RPMI 5 mM glucose + 10% dialyzed FBS, 0.569 µM | 22.1 | 14.6 | 14.2
RPMI 5 mM glucose + 10% dialyzed FBS, 1.71 µM | 16 | 17.9 | 12.8
RPMI 5 mM glucose + 10% dialyzed FBS, 5.12 µM | 18.7 | 20.9 | 12.5
RPMI 5 mM glucose + 10% dialyzed FBS, 15.4 µM | 9.49 | 6.49 | 6.59
RPMI 5 mM glucose + 10% dialyzed FBS, 46.1 µM | 12.2 | 3.06 | 5.46

AUC of viability dose-response curve
Conditions | [4] | [5] | [6]
HPLM + 10% dialyzed FBS | 272 | 269 | 234
RPMI 5 mM glucose + 10% FBS | 273 | 251 | 209
RPMI 5 mM glucose + 10% dialyzed FBS | 268 | 259 | 221

CN(Cc1cc(Br)cc(Br)c1N)C1CCCCC1
[3], HPLM + 10% dialyzed FBS
Conditions | cell viability [%]
0.000781 µM | 99.1
0.00234 µM | 122
0.00702 µM | 123
0.0211 µM | 130
0.0632 µM | 104
0.19 µM | 133
0.569 µM | 104
1.71 µM | 133
5.12 µM | 121
15.4 µM | 130
46.1 µM | 108

AUC of viability dose-response curve
Conditions | [4] | [5] | [6]
HPLM + 10% dialyzed FBS | 444 | 468 | 472
RPMI 5 mM glucose + 10% FBS | 464 | 471 | 461
RPMI 5 mM glucose + 10% dialyzed FBS | 448 | 470 | 441

CNC(=O)[C@H](CC/1=C/N=C\2/C=C\C\C=C12)NC(=O)[C@H](CC(C)C)CC(=O)NO
cell viability [%]
Conditions | [1] | [2] | [3]
HPLM + 10% dialyzed FBS, 0.000781 µM | 108 | 116 | 104
HPLM + 10% dialyzed FBS, 0.00234 µM | 102 | 108 | 103
HPLM + 10% dialyzed FBS, 0.00702 µM | 113 | 103 | 108
HPLM + 10% dialyzed FBS, 0.0211 µM | 111 | 99.5 | 111
HPLM + 10% dialyzed FBS, 0.0632 µM | 120 | 116 | 120
HPLM + 10% dialyzed FBS, 0.19 µM | 124 | 111 | 104
HPLM + 10% dialyzed FBS, 0.569 µM | 123 | 116 | 112
HPLM + 10% dialyzed FBS, 1.71 µM | 88.3 | 105 | 118
HPLM + 10% dialyzed FBS, 5.12 µM | 78.6 | 108 | 120
HPLM + 10% dialyzed FBS, 15.4 µM | 25.4 | 30.9 | 105
HPLM + 10% dialyzed FBS, 46.1 µM | 25.6 | 29.8 | 101
RPMI 5 mM glucose + 10% FBS, 0.000781 µM | 99.5 | 99.5 | 111
RPMI 5 mM glucose + 10% FBS, 0.00234 µM | 109 | 107 | 134
RPMI 5 mM glucose + 10% FBS, 0.00702 µM | 89.2 | 98 | 122
RPMI 5 mM glucose + 10% FBS, 0.0211 µM | 102 | 102 | 133
RPMI 5 mM glucose + 10% FBS, 0.0632 µM | 113 | 108 | 117
RPMI 5 mM glucose + 10% FBS, 0.19 µM | 103 | 108 | 118
RPMI 5 mM glucose + 10% FBS, 0.569 µM | 97 | 113 | 116
RPMI 5 mM glucose + 10% FBS, 1.71 µM | 97.3 | 106 | 110
RPMI 5 mM glucose + 10% FBS, 5.12 µM | 97.4 | 97.9 | 132
RPMI 5 mM glucose + 10% FBS, 15.4 µM | 11.9 | 28.4 | 120
RPMI 5 mM glucose + 10% FBS, 46.1 µM | 14.1 | 33.3 | 114
RPMI 5 mM glucose + 10% dialyzed FBS, 0.000781 µM | 114 | 105 | 95
RPMI 5 mM glucose + 10% dialyzed FBS, 0.00234 µM | 124 | 107 | 99.2
RPMI 5 mM glucose + 10% dialyzed FBS, 0.00702 µM | 112 | 107 | 104
RPMI 5 mM glucose + 10% dialyzed FBS, 0.0211 µM | 111 | 112 | 100
RPMI 5 mM glucose + 10% dialyzed FBS, 0.0632 µM | 120 | 115 | 113
RPMI 5 mM glucose + 10% dialyzed FBS, 0.19 µM | 113 | 114 | 88.9
RPMI 5 mM glucose + 10% dialyzed FBS, 0.569 µM | 109 | 114 | 99.7
RPMI 5 mM glucose + 10% dialyzed FBS, 1.71 µM | 113 | 105 | 102
RPMI 5 mM glucose + 10% dialyzed FBS, 5.12 µM | 112 | 107 | 94.4
RPMI 5 mM glucose + 10% dialyzed FBS, 15.4 µM | 21.1 | 24.7 | 102
RPMI 5 mM glucose + 10% dialyzed FBS, 46.1 µM | 22.5 | 32.1 | 90.1

AUC of viability dose-response curve
Conditions | [4] | [5] | [6]
HPLM + 10% dialyzed FBS | 400 | 425 | 471
RPMI 5 mM glucose + 10% FBS | 413 | 423 | 462
RPMI 5 mM glucose + 10% dialyzed FBS | 418 | 423 | 465
